Source: patent US9884832B2 (priority 2011, dated 2018)
Read-outs that look alike come from different tables or passages of the source.

What was measured:
[1] = biological target: AM2 S31N (serine→asparagine mutation at residue 31 in the M2 protein) (Influenza A virus, UniProt P0DOF5, S31N); format: cell-based, influenza virus A/Udorn/72
[2] = biological target: AM2 V27A (valine→alanine mutation at residue 27 in the M2 protein) (Influenza A virus, UniProt P0DOF5, V27A); format: cell-based, influenza virus A/Udorn/72

| Structure (SMILES) | S31N OOcyte Inhibition at 100 uM (%) [1] | V27A OOcyte Inhibition at 100 uM (%) [2] | S31N OOcyte Inhibition at 100 uM (%) ([1]; pH 5.5) | V27A OOcyte Inhibition at 100 uM (%) ([2]; pH 5.5) |
| --- | --- | --- | --- | --- |
| c1cc(CNC23CC4CC(CC(C4)C2)C3)cc(-c2cccs2)c1 [Example 34a, N-(3-(thiophen-2-yl)benzyl)adamantan-1-amine] | B (key: (A)=31-95%; (B)=0-30%) | A (key: (A)=31-95%; (B)=0-30%) |  |  |
| c1cc(-c2ccc(CNC34CC5CC(CC(C5)C3)C4)s2)[nH]n1 [Example 158a, N-((5-(1H-pyrazol-5-yl)thiophen-2-yl)methyl)adamantan-1-amine] | A (key: (A)=31-95%; (B)=0-30%) | A (key: (A)=31-95%; (B)=0-30%) |  |  |
| c1ccc2nc(CNC34CC5CC(CC(C5)C3)C4)ccc2c1 [Example 98, Adamantan-1-yl-quinolin-2-ylmethyl-amine] |  |  | A (key: (A)=31-95%; (B)=0-30%) | B (key: (A)=31-95%; (B)=0-30%) |
| Cc1noc(C)c1-c1ccc(CNC23CC4CC(CC(C4)C2)C3)cc1 [Example 33a, N-(4-(3,5-Dimethylisoxazol-4-yl)benzyl)adamantan-1-amine] | B (key: (A)=31-95%; (B)=0-30%) | B (key: (A)=31-95%; (B)=0-30%) |  |  |
| Fc1ccc(C(F)(F)F)cc1CNC12CC3CC(CC(C3)C1)C2 [Example 62, Adamantan-1-yl-(2-fluoro-5-trifluoromethyl-benzyl)-amine] |  |  | B (key: (A)=31-95%; (B)=0-30%) | B (key: (A)=31-95%; (B)=0-30%) |
| Clc1c(CNC23CC4CC(CC(C4)C2)C3)nc2sccn12 [Example 87, Adamantan-1-yl-(5-chloro-imidazo[2,1-b]thiazol-6-ylmethyl)-amine] |  |  | B (key: (A)=31-95%; (B)=0-30%) | B (key: (A)=31-95%; (B)=0-30%) |
| COc1cc(CNC23CC4CC(CC(C4)C2)C3)ccc1O [Example 50, 4-(Adamantan-1-ylaminomethyl)-2-methoxy-phenol] |  |  | B (key: (A)=31-95%; (B)=0-30%) | A (key: (A)=31-95%; (B)=0-30%) |
| Fc1ccc(CNC23CC4CC(CC(C4)C2)C3)c(F)c1 [Example 54, Adamantan-1-yl-(2,4-difluoro-benzyl)-amine] |  |  | B (key: (A)=31-95%; (B)=0-30%) | B (key: (A)=31-95%; (B)=0-30%) |
| c1csc(CNC23CC4CC(CC(C4)C2)C3)c1 [Example 70a, Adamantan-1-yl-thiophen-2-ylmethyl-amine] | B (key: (A)=31-95%; (B)=0-30%) | B (key: (A)=31-95%; (B)=0-30%) |  |  |
| c1coc(-c2ncc(CNC34CC5CC(CC(C5)C3)C4)cn2)c1 [Example 62a, N-((2-(furan-2-yl)pyrimidin-5-yl)methyl)adamantan-1-amine] | A (key: (A)=31-95%; (B)=0-30%) | B (key: (A)=31-95%; (B)=0-30%) |  |  |
| O=c1[nH]cc(CNC23CC4CC(CC(C4)C2)C3)c(=O)[nH]1 [Example 169a, 5-((adamantan-1-ylamino)methyl)pyrimidine-2,4(1H,3H)-dione] | B (key: (A)=31-95%; (B)=0-30%) | B (key: (A)=31-95%; (B)=0-30%) |  |  |
| c1csc(-c2ncc(CNC34CC5CC(CC(C5)C3)C4)cn2)c1 [Example 61a, N-((2-(thiophen-2-yl)pyrimidin-5-yl)methyl)adamantan-1-amine] | A (key: (A)=31-95%; (B)=0-30%) | B (key: (A)=31-95%; (B)=0-30%) |  |  |
| Nc1ncc(CNC23CC4CC(CC(C4)C2)C3)cn1 [Example 75, 5-(Adamantan-1-ylaminomethyl)-pyrimidin-2-ylamine] |  |  | B (key: (A)=31-95%; (B)=0-30%) | B (key: (A)=31-95%; (B)=0-30%) |
| c1nc2ccc(CNC34CC5CC(CC(C5)C3)C4)cc2[nH]1 [Example 94, Adamantan-1-yl-(3H-benzoimidazol-5-ylmethyl)-amine] |  |  | B (key: (A)=31-95%; (B)=0-30%) | B (key: (A)=31-95%; (B)=0-30%) |
| c1cc(C2CCCCC2)ccc1CNC12CC3CC(CC(C3)C1)C2 [Example 10a, Adamantan-1-yl-(4-cyclohexyl-benzyl)-amine] | A (key: (A)=31-95%; (B)=0-30%) | B (key: (A)=31-95%; (B)=0-30%) |  |  |
| COc1ccc(-c2cc(CNC34CC5CC(CC(C5)C3)C4)no2)cc1 [Example 110a, N-((5-(4-methoxyphenyl)isoxazol-3-yl)methyl)adamantan-1-amine] | A (key: (A)=31-95%; (B)=0-30%) | B (key: (A)=31-95%; (B)=0-30%) |  |  |
| Brc1nc(CNC23CC4CC(CC(C4)C2)C3)cs1 [Example 83a, N-((2-bromothiazol-4-yl)methyl)adamantan-1-amine] | A (key: (A)=31-95%; (B)=0-30%) | B (key: (A)=31-95%; (B)=0-30%) |  |  |
| Oc1cc(F)c(CNC23CC4CC(CC(C4)C2)C3)c(F)c1 [Example 69, 4-(Adamantan-1-ylaminomethyl)-3,5-difluoro-phenol] |  |  | B (key: (A)=31-95%; (B)=0-30%) | A (key: (A)=31-95%; (B)=0-30%) |
| CC(C)(C)C1CCC(NCc2ccc(O)cc2O)CC1 (stereo not shown) [Example 109, 4-[(4-tert-Butyl-cyclohexylamino)-methyl]-benzene-1,3-diol] |  |  | B (key: (A)=31-95%; (B)=0-30%) | A (key: (A)=31-95%; (B)=0-30%) |
| COc1ccccc1COc1ccc(CNC23CC4CC(CC(C4)C2)C3)cc1 [Example 15a, Adamantan-1-yl-[4-(2-methoxy-benzyloxy)-benzyl]-amine] | A (key: (A)=31-95%; (B)=0-30%) | B (key: (A)=31-95%; (B)=0-30%) |  |  |
| O=[N+]([O-])c1ccc(CNC23CC4CC(CC(C4)C2)C3)s1 [Example 100a, N-((5-nitrothiophen-2-yl)methyl)adamantan-1-amine] | B (key: (A)=31-95%; (B)=0-30%) | A (key: (A)=31-95%; (B)=0-30%) |  |  |
| FC(F)(F)Oc1ccc(CNC23CC4CC(CC(C4)C2)C3)cc1 [Example 4a, Adamantan-1-yl-(4-trifluoromethoxy-benzyl)-amine] | B (key: (A)=31-95%; (B)=0-30%) | B (key: (A)=31-95%; (B)=0-30%) |  |  |
| c1coc(CNC23CC4CC(CC(C4)C2)C3)c1 [Example 69a, Adamantan-1-yl-furan-2-ylmethyl-amine] | B (key: (A)=31-95%; (B)=0-30%) | B (key: (A)=31-95%; (B)=0-30%) |  |  |
| c1cn(-c2ccc(CNC34CC5CC(CC(C5)C3)C4)cc2)cn1 [Example 36, Adamantan-1-yl-(4-imidazol-1-yl-benzyl)-amine] |  |  | B (key: (A)=31-95%; (B)=0-30%) | B (key: (A)=31-95%; (B)=0-30%) |
| O=C1CCCN1c1ccc(CNC23CC4CC(CC(C4)C2)C3)cc1 [Example 45a, 1-(4-((adamantan-1-ylamino)methyl)phenyl)pyrrolidin-2-one] | A (key: (A)=31-95%; (B)=0-30%) | B (key: (A)=31-95%; (B)=0-30%) |  |  |
| c1cc2c(cc1CNC13CC4CC(CC(C4)C1)C3)OCO2 [Example 49] |  |  | B (key: (A)=31-95%; (B)=0-30%) | B (key: (A)=31-95%; (B)=0-30%) |
